Results published in publication PMC8717171 (Saudi Journal of Biological Sciences, 2021).
Values after ≈ are worked out from the molar mass of the structure shown.

Experiments:
[1] = Antioxidant activity, DPPH free radical scavenging; type: biochemical; conditions: absorbance at 517 nm
microbial strains = assay: Antimicrobial disc diffusion, all test strains together; type: cell-based
butyrylcholinesterase = butyrylcholinesterase (Rattus norvegicus, UniProt Q9JKC1); assay: In-vitro anti-butyrylcholinesterase activity; type: biochemical
butyrylcholinesterase, sequence (Q9JKC1 24-597): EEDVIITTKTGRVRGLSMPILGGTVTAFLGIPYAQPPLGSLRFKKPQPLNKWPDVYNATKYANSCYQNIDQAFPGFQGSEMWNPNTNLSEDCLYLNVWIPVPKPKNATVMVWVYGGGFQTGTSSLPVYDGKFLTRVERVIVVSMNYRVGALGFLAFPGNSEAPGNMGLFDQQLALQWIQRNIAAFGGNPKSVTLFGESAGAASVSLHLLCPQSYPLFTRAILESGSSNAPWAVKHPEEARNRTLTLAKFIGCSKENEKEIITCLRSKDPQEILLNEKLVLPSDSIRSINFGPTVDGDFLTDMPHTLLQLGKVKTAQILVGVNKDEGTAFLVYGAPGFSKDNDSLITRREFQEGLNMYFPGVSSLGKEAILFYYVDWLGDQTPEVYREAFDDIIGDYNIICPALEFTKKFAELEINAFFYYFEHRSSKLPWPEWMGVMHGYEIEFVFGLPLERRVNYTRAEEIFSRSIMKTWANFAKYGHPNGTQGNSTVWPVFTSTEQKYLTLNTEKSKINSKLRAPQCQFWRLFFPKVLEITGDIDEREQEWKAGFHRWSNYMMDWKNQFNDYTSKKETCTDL

acetylcholinesterase = target: T1, acetylcholinesterase (Rattus norvegicus, UniProt P37136); assay: In-vitro anti-acetylcholinesterase activity; type: biochemical
T1 sequence (P37136 32-614): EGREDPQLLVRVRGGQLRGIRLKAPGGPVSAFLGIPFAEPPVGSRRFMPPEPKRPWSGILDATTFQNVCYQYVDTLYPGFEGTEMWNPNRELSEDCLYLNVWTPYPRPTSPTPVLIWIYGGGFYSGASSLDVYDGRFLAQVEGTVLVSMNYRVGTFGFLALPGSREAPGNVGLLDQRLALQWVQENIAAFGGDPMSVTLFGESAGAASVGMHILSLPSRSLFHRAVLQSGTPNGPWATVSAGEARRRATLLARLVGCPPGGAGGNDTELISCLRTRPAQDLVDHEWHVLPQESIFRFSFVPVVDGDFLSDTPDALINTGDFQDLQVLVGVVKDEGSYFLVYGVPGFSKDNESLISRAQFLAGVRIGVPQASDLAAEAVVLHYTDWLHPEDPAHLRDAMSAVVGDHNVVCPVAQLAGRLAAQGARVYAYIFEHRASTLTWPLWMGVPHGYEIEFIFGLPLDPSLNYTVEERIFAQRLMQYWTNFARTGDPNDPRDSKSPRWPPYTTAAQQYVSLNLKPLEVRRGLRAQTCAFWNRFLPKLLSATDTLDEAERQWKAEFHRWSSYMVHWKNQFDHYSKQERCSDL

rat hind paw oedema = assay: Anti-inflammatory activity, carrageenan-induced rat hind paw oedema; type: in vivo, Sprague Dawley rat; conditions: test compounds 100 mg/kg; for Mean paw edema (volume in ml) ± SEM: n = 5
mice = assay: Peripheral anti-nociception, acetic acid-induced writhing; type: in vivo, Mus musculus; conditions: for Number of Writhing (Mean ± SEM): counted for 15 min, n = 5
[2] = system: non-enzymatic lipid peroxidation in rat brain homogenate; assay: In-vitro lipid peroxidation inhibition; conditions: Fe2+-ascorbate
Salmonella paratyphi = assay: Disc diffusion; type: cell-based; conditions: standard Ciprofloxacin 5 µg/disc
Vibrio parahaemolyticus = assay: Disc diffusion; type: cell-based; conditions: standard Ciprofloxacin 5 µg/disc
Bacillus megaterium = assay: Disc diffusion; type: cell-based; conditions: standard Ciprofloxacin 5 µg/disc
Escherichia coli = assay: Disc diffusion; type: cell-based; conditions: standard Ciprofloxacin 5 µg/disc
Sarcina lutea = assay: Disc diffusion; type: cell-based; conditions: standard Ciprofloxacin 5 µg/disc
Vibrio mimicus = assay: Disc diffusion; type: cell-based; conditions: standard Ciprofloxacin 5 µg/disc
Pseudomonas aeruginosa = assay: Disc diffusion; type: cell-based; conditions: standard Ciprofloxacin 5 µg/disc
Salmonella typhi = assay: Disc diffusion; type: cell-based; conditions: standard Ciprofloxacin 5 µg/disc
Shigella dysenteriae = assay: Disc diffusion; type: cell-based; conditions: standard Ciprofloxacin 5 µg/disc
Shigella boydii = assay: Disc diffusion; type: cell-based; conditions: standard Ciprofloxacin 5 µg/disc
Bacillus subtilis = assay: Disc diffusion; type: cell-based; conditions: standard Ciprofloxacin 5 µg/disc
Saccharomyces cerevisiae = assay: Disc diffusion; type: cell-based; conditions: standard Ciprofloxacin 5 µg/disc
Aspergillus niger = assay: Disc diffusion; type: cell-based; conditions: standard Ciprofloxacin 5 µg/disc
Bacillus cereus = assay: Disc diffusion; type: cell-based; conditions: standard Ciprofloxacin 5 µg/disc
Candida albicans = assay: Disc diffusion; type: cell-based; conditions: standard Ciprofloxacin 5 µg/disc
Staphylococcus aureus = assay: Disc diffusion; type: cell-based; conditions: standard Ciprofloxacin 5 µg/disc

Compound | IC50 (antioxidant activity, DPPH scavenging) [1] [µg/mL] | IC50 (acetylcholinesterase) [µM] | % Paw edema inhibition (rat hind paw oedema; 1st hour) [%] | Mean paw edema (volume in ml) ± SEM (rat hind paw oedema; 1st hour) [mL] | % Paw edema inhibition (rat hind paw oedema; 2nd hour) [%] | Mean paw edema (volume in ml) ± SEM (rat hind paw oedema; 2nd hour) [mL] | % Paw edema inhibition (rat hind paw oedema; 3rd hour) [%] | Mean paw edema (volume in ml) ± SEM (rat hind paw oedema; 3rd hour) [mL] | % Paw edema inhibition (rat hind paw oedema; 4th hour) [%] | Mean paw edema (volume in ml) ± SEM (rat hind paw oedema; 4th hour) [mL] | % of Inhibition of Writhing (mice; 25 mg/kg) [%] | Number of Writhing (Mean ± SEM) (mice; 25 mg/kg) | % of Inhibition of Writhing (mice; 50 mg/kg) [%] | Number of Writhing (Mean ± SEM) (mice; 50 mg/kg) | IC50 (lipid peroxidation inhibition) [2] [µg/mL] | also measured
Oc1ccc(Cn2c(-c3ccc(O)cc3)nc3ccccc32)cc1 [Compound 3a, 1-(4-hydroxybenzyl)-2-(4-hydroxyphenyl)-1H-benzimidazole] | 16.73 (≈ 52.9 µM) | 231 | 34.75 | 0.768 ± 0.0575 | 36.07 | 0.78 ± 0.023 | 38.93 | 0.80 ± 0.043 | 37.59 | 0.88 ± 0.034 | 49.25 | 13.6 ± 0.430 | 29.10 | 19.0 ± 1.649 | 75.53 (≈ 239 µM) | antimicrobial activity (in words) (microbial strains): did not show any antimicrobial activity; IC50 (butyrylcholinesterase): 49.1 µM
O=C(O)Cc1ccccc1Nc1c(Cl)cccc1Cl [Diclofenac sodium, diclofenac sodium, reference compound] |  |  | 23.73 |  | 31.15 |  | 38.93 |  | 45.39 |  |  |  |  |  |  | % of Inhibition of Writhing (mice; standard diclofenac sodium, dose column 0.1 ml/10 g (method: 25 mg/kg)): 91.79%
O.Oc1cc(O)c2c(c1)O[C@H](c1ccc(O)c(O)c1)[C@@H](O)C2 [Catechin, reference compound] |  |  |  |  |  |  |  |  |  |  |  |  |  |  | 59.36 | 
c1ccc(COCc2nc3ccccc3[nH]2)cc1 [Compound 6, 2-((benzyloxy)-methyl)-1H-benzimidazole] | 579.19 (≈ 2430 µM) | 124 | 22.88 | 0.906 ± 0.047 | 23.77 | 0.93 ± 0.028 | 25.19 | 0.98 ± 0.018 | 31.91 | 0.96 ± 0.039 | 37.69 | 16.7 ± 0.889 | 55.60 | 11.9 ± 0.458 |  | Diameter of zone of inhibition (mm) (Salmonella paratyphi): 8 mm; Diameter of zone of inhibition (mm) (Vibrio parahaemolyticus): 10 mm; Diameter of zone of inhibition (mm) (Bacillus megaterium): 7 mm; Diameter of zone of inhibition (mm) (Escherichia coli): 0 mm; Diameter of zone of inhibition (mm) (Sarcina lutea): 7 mm; Diameter of zone of inhibition (mm) (Vibrio mimicus): 9 mm; Diameter of zone of inhibition (mm) (Pseudomonas aeruginosa): 7 mm; Diameter of zone of inhibition (mm) (Salmonella typhi): 8 mm; Diameter of zone of inhibition (mm) (Shigella dysenteriae): 0 mm; Diameter of zone of inhibition (mm) (Shigella boydii): 7 mm; Diameter of zone of inhibition (mm) (Bacillus subtilis): 10 mm; Diameter of zone of inhibition (mm) (Saccharomyces cerevisiae): 7 mm; Diameter of zone of inhibition (mm) (Aspergillus niger): 0 mm; Diameter of zone of inhibition (mm) (Bacillus cereus): 8 mm; Diameter of zone of inhibition (mm) (Candida albicans): 0 mm; Diameter of zone of inhibition (mm) (Staphylococcus aureus): 7 mm
